From patent publication US9572785B2, “DP2 antagonist and uses thereof” (Brickell Biotech, Inc., priority 2009, dated 2017)
Converted amounts (≈) assume the structure as drawn. Like-named read-outs stand apart in the source and are kept apart here.

Assays:
[1] = molecular target: T1, guinea pig DP2 receptor (Cavia porcellus, UniProt H0W1T0); experiment: DP2 radioligand membrane binding assay, guinea pig
T1 sequence (H0W1T0 1-391): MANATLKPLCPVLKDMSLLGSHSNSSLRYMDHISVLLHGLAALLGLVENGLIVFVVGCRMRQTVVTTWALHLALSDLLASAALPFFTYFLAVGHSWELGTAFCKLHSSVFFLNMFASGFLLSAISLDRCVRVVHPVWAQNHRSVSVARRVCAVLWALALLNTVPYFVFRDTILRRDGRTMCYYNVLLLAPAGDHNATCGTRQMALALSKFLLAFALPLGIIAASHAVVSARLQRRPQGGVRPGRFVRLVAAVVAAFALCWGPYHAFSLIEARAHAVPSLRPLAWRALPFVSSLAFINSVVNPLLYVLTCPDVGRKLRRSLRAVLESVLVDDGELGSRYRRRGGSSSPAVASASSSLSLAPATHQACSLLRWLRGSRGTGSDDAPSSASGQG
Procedure: (§1) HEK293 cells stably expressing recombinant human DP2 are resuspended in 10 mM Hepes, 7.4 containing 1 mM DTT, lysed and centrifuged at 75,000×g to pellet the membranes. The membranes are resuspended in 10 mM Hepes, 7.4 containing 1 mM DTT and 10% glycerol to approximately 5 mg protein/ml. […] The reactions are terminated by rapid filtration through Whatman GF/C glass fibre filter plates. […] After harvesting, the filter plates are washed 3 times with 1 ml cold Wash Buffer then dried. Scintillant is then added to the plates and the radioactivity retained on the filters is determined on a Packard TopCount (Perkin Elmer). Specific binding is determined as total radioactive binding minus non-specific binding in the presence of 10 μM PGD2. IC50s were determined using GraphPad prism analysis of drug titration curves. Mouse, rat and guinea pig DP2 receptors were also investigated.

[2] = in vivo; details: Hartley, guinea pig, in vivo
[3] = Solubility profiling at various pHs; type: physicochemical; details: 0.15 M NaCl (aq), pH-adjusted, 25 °C, thermodynamic from solid
Procedure: Aqueous solubility was determined by suspending sufficient compound in water to give a maximum final concentration of ≧10 mg·ml^−1 of the parent free-form of the compound. The suspension was equilibrated at 25° C. for 24 hours then the pH was measured. The suspension was then filtered through a glass fibre C filter into a 96 well plate. The filtrate was then diluted by an appropriate factor. Quantitation was by HPLC with reference to a standard solution of approximately 0.1 mg·ml^−1 in DMSO. Different volumes of the standard, diluted and undiluted sample solutions were injected. The solubility was calculated using the peak areas determined by integration of the peak found at the same retention time as the principal peak in the standard injection.
The aqueous solubility was determined using the method described in Table 1. The pH was varied by the suspensions being made up in 0.15 M NaCl (aq) and the pH adjusted to the appropriate value with either dilute HCl or NaOH. The suspension was then allowed to equilibrate for two hours followed by checking the pH and readjustment if required, using either HCl or NaOH as appropriate. The suspension was then allowed to equilibrate for 24 hrs.

[4] = molecular target: T2, DP2 receptor (Cavia porcellus, UniProt H0W1T0); experiment: Whole blood eosinophil shape change (ESC) assay, guinea pig; type: cell-based; details: read-out: IC50, PGD2-induced eosinophil shape change
T2 sequence (H0W1T0 1-391): T1 sequence (H0W1T0 1-391)

[5] = molecular target: T3, DP2 receptor (Homo sapiens, UniProt Q9Y5Y4); experiment: In vitro scintillation proximity assay (SPA) off-rate; type: binding; details: compared with PGD2
T3 sequence (Q9Y5Y4 1-395): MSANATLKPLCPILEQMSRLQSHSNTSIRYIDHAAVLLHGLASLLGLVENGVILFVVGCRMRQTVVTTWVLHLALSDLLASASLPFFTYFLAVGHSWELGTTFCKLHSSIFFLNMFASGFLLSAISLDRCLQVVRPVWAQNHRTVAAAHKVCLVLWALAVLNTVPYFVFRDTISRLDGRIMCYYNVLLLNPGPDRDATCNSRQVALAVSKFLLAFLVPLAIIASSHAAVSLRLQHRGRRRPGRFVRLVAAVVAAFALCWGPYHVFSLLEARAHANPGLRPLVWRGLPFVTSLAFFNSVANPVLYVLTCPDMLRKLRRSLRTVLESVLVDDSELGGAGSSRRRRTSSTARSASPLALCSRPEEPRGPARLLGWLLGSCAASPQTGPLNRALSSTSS

[6] = Properties of the amorphous phase; type: physicochemical
[7] = molecular target: T4, recombinant human CRTH2 receptor (Homo sapiens, UniProt Q9Y5Y4); experiment: In vitro GTPγS binding assay; type: biochemical; details: CHO membranes, 80 nM PGD2, 0.2% human serum albumin
T4 construct: expressed in transfected cells
T4 sequence (Q9Y5Y4 1-395): T3 sequence (Q9Y5Y4 1-395)

[8] = clinical; details: human
[9] = molecular target: T5, rat DP2 (Rattus norvegicus, UniProt Q6XKD3); experiment: DP2 radioligand membrane binding assay, rat; details: read-out: average IC50, inhibition of radiolabeled PGD2 binding
T5 sequence (Q6XKD3 1-403): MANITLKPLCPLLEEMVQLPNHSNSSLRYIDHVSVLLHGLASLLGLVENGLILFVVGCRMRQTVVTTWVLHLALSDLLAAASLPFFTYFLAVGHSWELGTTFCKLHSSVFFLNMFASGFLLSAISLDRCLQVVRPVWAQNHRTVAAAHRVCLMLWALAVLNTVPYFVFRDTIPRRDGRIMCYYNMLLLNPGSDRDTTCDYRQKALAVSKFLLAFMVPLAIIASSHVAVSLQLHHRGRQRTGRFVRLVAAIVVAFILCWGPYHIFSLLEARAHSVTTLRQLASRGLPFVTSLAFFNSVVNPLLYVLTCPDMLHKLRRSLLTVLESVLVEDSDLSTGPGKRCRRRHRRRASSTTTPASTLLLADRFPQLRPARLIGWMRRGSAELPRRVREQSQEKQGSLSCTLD
Procedure: as §1

With `CCN(Cc1cc(C(F)(F)F)ccc1-c1cc(CC(=O)O)ccc1OC)C(=O)NCc1ccccc1` [Compound 1, [2′-(3-benzyl-1-ethyl-ureidomethyl)-6-methoxy-4′-trifluoromethyl-biphenyl-3-yl]-acetic acid] as the molecule, how does the IC50 ([1]; average IC50, inhibition of radiolabeled PGD2 binding, guinea pig DP2, membrane binding) read?
The IC50 was 4.9 nM.

What about the IC50 ([1]; guinea pig DP2 receptor, in the presence of 0.2% guinea pig serum albumin, read-out: IC50, radioligand membrane binding) of the same molecule?
Its IC50 is 22.9 nM.

And the concentration at 18.5 h [2]?
The concentration at 18.5 h was less than 40 nM.

What about the solubility at 24 h ([3]; pH 5.6, saline or isotonic, Media pH 6, original pH 6.02, final pH 5.60) of the same molecule?
Its solubility at 24 h is 160 µg/mL (≈ 320 µM).

And the solubility at 24 h ([3]; saline or isotonic, Media pH 1, original pH 1.15, final pH 1.15)?
The solubility at 24 h was 6.9 µg/mL (≈ 13.8 µM).

And the solubility at 24 h ([3]; saline or isotonic, Media pH 2, original pH 2.0, final pH 2.0)?
Its solubility at 24 h is 1.6 µg/mL (≈ 3.2 µM).

What about the solubility at 24 h ([3]; saline or isotonic, Media pH 3, original pH 3.01, final pH 3.1) of the same molecule?
The solubility at 24 h was 2.2 µg/mL (≈ 4.4 µM).

What about the solubility at 24 h ([3]; saline or isotonic, Media pH 4, original pH 3.97, final pH 4.22) of the same molecule?
Its solubility at 24 h is 3.5 µg/mL (≈ 6.99 µM).

What about the solubility at 24 h ([3]; saline or isotonic, Media pH 5, original pH 5.0, final pH 5.07) of the same molecule?
Its solubility at 24 h is 53 µg/mL (≈ 106 µM).

What about the solubility at 24 h ([3]; saline or isotonic, Media pH 7, original pH 7.03, final pH 6.47) of the same molecule?
The solubility at 24 h was 590 µg/mL (≈ 1180 µM).

And the solubility at 24 h ([3]; saline or isotonic, Media pH 8, original pH 8.09, final pH 7.07)?
The solubility at 24 h was 2200 µg/mL (≈ 4400 µM).

And the AUC0-24 (human, in vivo)?
The AUC0-24 was 44.5 ng·h/mL.

What about the Cmax (human, in vivo) of the same molecule?
The Cmax was 15.8 ng/mL.

What about the t1/2 (multiple dose administration 30 mg, cohort 2, Day 7) of the same molecule?
Its t1/2 is 11.0 h.

And the IC50 [4]?
Its IC50 is 21.5 nM.

And the “off-rate from the DP2 receptor” value [5]?
Its value is “longer off-rate than PGD2”.

What about the “solubility in water” value [6] of the same molecule?
The value was “sparingly soluble in water”.

What about the “hygroscopicity, weight change” value ([6]; from 0% to 90% relative humidity) of the same molecule?
Its value is 1.7%.

And the IC50 [7]?
Its IC50 is less than 20 nM.

What about the half-life ([8]; in vivo) of the same molecule?
Its half-life is 6.6 to 11 h.

What about the AUC(0-t) ([8]; plasma, oral, 30 mg) of the same molecule?
The AUC(0-t) was 32.3 ng·h/mL.

What about the Cmax ([8]; plasma, oral, 30 mg) of the same molecule?
The Cmax was 16 ng/mL.

And the AUC(0-t) ([8]; plasma, po, 30 mg)?
The AUC(0-t) was 24.1 ng·h/mL.

And the Cmax ([8]; plasma, po, 30 mg)?
The Cmax was 11.2 ng/mL.

What about the half-life ([8]; plasma, po, 30 mg) of the same molecule?
The half-life was 6.6 h.

And the AUC(0-t) ([8]; plasma, po, 100 mg)?
The AUC(0-t) was 118 ng·h/mL.

And the Cmax ([8]; plasma, po, 100 mg)?
Its Cmax is 81 ng/mL.

And the half-life ([8]; plasma, po, 100 mg)?
The half-life was 8.1 h.

And the AUC(0-t) ([8]; plasma, po, 300 mg)?
Its AUC(0-t) is 1420 ng·h/mL.

And the Cmax ([8]; plasma, po, 300 mg)?
Its Cmax is 1400 ng/mL.

And the half-life ([8]; plasma, po, 300 mg)?
Its half-life is 7 h.

What about the IC50 [9] of the same molecule?
The IC50 was 10.4 nM.
